Results published in EP4782453A1 (Beyang Therapeutics Co., Ltd., priority 2023, dated 2025).
Like-named read-outs stand apart in the source and are kept apart here.

Biological target: T1, Menin-MLL (Homo sapiens, UniProt O00255)
T1 construct: His-Menin (M1-L615 end); purchased BIORTUS BP9210
T1 sequence (O00255 1-615 isoform O00255-1): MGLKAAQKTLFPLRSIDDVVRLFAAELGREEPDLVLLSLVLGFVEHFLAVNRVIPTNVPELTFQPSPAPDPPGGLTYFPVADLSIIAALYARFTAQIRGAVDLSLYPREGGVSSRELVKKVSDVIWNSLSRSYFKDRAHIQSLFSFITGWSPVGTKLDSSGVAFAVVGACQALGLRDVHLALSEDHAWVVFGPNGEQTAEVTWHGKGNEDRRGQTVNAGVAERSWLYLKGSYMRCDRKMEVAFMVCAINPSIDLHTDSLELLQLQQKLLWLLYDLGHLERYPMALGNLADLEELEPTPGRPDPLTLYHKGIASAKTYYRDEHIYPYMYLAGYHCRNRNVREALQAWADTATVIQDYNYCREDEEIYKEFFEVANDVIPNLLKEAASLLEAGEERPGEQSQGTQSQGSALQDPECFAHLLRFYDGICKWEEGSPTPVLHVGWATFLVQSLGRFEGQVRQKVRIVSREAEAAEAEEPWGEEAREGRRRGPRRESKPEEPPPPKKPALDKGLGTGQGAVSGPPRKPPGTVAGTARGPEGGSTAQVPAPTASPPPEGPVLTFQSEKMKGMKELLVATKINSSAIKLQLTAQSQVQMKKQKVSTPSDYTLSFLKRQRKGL
Test: Inhibitory activity against Menin-MLL binding (fluorescence polarization)
Details: 150 nM His-Menin, 15 nM FITC-MLL, 25°C for 60 min
In short: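 His-Menin (M1-L615, 150 nM) preincubated with compound 15 min at 25 °C in HEPES pH 7.5, 50 mM NaCl, 1 mM DTT, 0.01% BSA, then 15 nM FITC-MLL4-43 peptide added for 60 min at 25 °C. Fluorescence polarization read; IC50 from 4-parameter logistic fit, duplicates.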

[1] = fluorescence polarization, read-out: Menin-MLL IC50
[2] = Menin-MLL IC50, fluorescence polarization

Compound	IC50 [1]	IC50 [2]
CCS(=O)(=O)NC1CCC(CN2CCC(c3cc(-c4ccc(F)cc4C(=O)N4CCC(F)(F)CC4C)c4cnn(C)c4c3)C2)CC1 (stereo not shown) [Example 101, N-{4-[(3-{4-[2-(4,4-difluoro-2-methylpiperidin-1-carbonyl)-4-fluorophenyl]-1-methyl-1H-indazol-6-yl}pyrrolidin-1-yl)methyl]cyclohexyl}ethan-1-sulfonamide]	45.5 nM	
CCN(C(=O)c1cc(F)ccc1-c1cc(N2CC3(CN(C[C@H]4CC[C@H](NS(=O)(=O)CC)CC4)C3)C2)cn2c(C)ncc12)C(C)C [Example 89, N-ethyl-5-fluoro-2-[3-methyl-6-(6-{[(1r,4r)-4-ethanesulfonamidocyclohexyl]methyl}-2,6-diazaspirocyclo[3.3]heptan-2-yl)imidazo[1,5-a]pyridin-8-yl]-N-(isopropyl)benzamide]		173 nM
CCN(C(=O)c1cc(F)ccc1-c1cc(C2CN(C(CCCN3C[C@H]4C[C@@H]3CO4)C3(C)COC3)C2)cn2c(C)ncc12)C(C)C (stereo partly drawn) [Example 485, N-ethyl-5-fluoro-2-(3-methyl-6-{1-[1-(3-methyloxacyclobutan-3-yl)-4-[(1R,4R)-2-oxa-5-azabicyclo[2.2.1]heptan-5-yl]butyl]azacyclobut-3-yl}imidazo[1,5-a]pyridin-8-yl)-N-(isopropyl)benzamide]	42 nM	
Cc1nc(F)c2c(-c3ccc(F)cc3C(=O)N3CCOC[C@H]3C)cc(C3CN([C@H](CO[C@@H]4CCN(C)C4)C(C)C)C3)cn12 [Example 298, (3R)-4-[5-fluoro-2-(1-fluoro-3-methyl-6-{1-[(2S)-3-methyl-1-{[(3R)-1-methylpyrrolidin-3-yl]oxy}butan-2-yl]azacyclobutan-3-yl}imidazo[1,5-a]pyridin-8yl)benzoyl]-3-methylmorpholine]	14.5 nM	
CCC(=O)N1CCC(C(C)N2CC(c3cc(-c4ccc(F)cc4C(=O)N4CCOC[C@H]4C)c4cnc(C)n4c3)C2)CC1 (stereo partly drawn) [Example 319, 1-(4-{1-[3-(8-{4-fluoro-2-[(3R)-3-methylmorpholin-4-carbonyl]phenyl}-3-methylimidazo[1,5-a]pyridin-6-yl)azacyclobutan-1-yl]ethyl}piperidin-1-yl)propan-1-one]	19 nM	
CCN(C(=O)c1cc(F)ccc1-c1cc(C2CCN(C[C@H]3CC[C@H](N4CCOC4=O)CC3)C2)cn2cncc12)C(C)C (stereo partly shown) [Example 47]	25 nM	
CCN(C(=O)c1cc(F)ccc1-c1cc(C2CN(C(C[C@@H]3CN(C(=O)OC(C)(C)C)CCO3)C(C)C)C2)cn2c(C)ncc12)C(C)C (stereo partly drawn) [Example 461, (2R)-2-{2-[3-(8-{2-[ethyl(isopropyl)aminoformyl]-4-fluorophenyl}-3-methylimidazo[1,5-a]pyridin-6-yl)azacyclobutan-1-yl]-3-methylbutyl}morpholin-4-tert-butyl carboxylate]	43 nM	
C=C1CN[C@H](C(=O)N2CC(c3cc(-c4ccc(F)cc4C(=O)N(CC)C(C)C)c4c(F)nc(C)n4c3)C2)C1 [Example 130]	62 nM	
CCN(C(=O)c1cc(F)ccc1-c1cc(C2CN(C(CCC(=O)O)C(C)C)C2)cn2c(C)ncc12)C(C)C (stereo not shown) [Example 427, 4-[3-(8-{2-[ethyl(isopropyl)aminoformyl]-4-fluorophenyl}-3-methylimidazo[1,5-a]pyridin-6-yl)azacyclobutan-1-yl]-5-methylhexanoic acid]	120 nM	
CCN(C(=O)c1cc(F)ccc1-c1cc(C2CN([C@H](C)C3CCN(C(C)=O)CC3)C2)cn2c(C)ncc12)C(C)C [Example 281-2]	79 nM	
Cc1nc(F)c2c(-c3ccc(F)cc3C(=O)N3CCOC[C@H]3C)cc(C3CN(CC4CCN(S(=O)(=O)C5CC5)CC4)C3)cn12 [Example 252]	109 nM	
CC[C@@H](C)[C@H](NC)C(=O)N1CC(c2cc(-c3ccc(F)cc3C(=O)N(CC)C(C)C)c3c(F)nc(C)n3c2)C1 [Example 318]		39 nM
CC(=O)N1C[C@H]2C[C@@H]1CN2CCC[C@H](C(C)C)N1CC(c2cc(-c3ccc(F)cc3C(=O)N3CCOC[C@H]3C)c3c(F)nc(C)n3c2)C1 [Example 332, 1-[(1R,4R)-5-[(4R)-4-[3-(1-fluoro-8-{4-fluoro-2-[(3R)-3-methylmorpholin-4-carbonyl]phenyl}-3-methylimidazo[1,5-a]pyridin-6-yl)azacyclobutan-1-yl]-5-methylhexyl]-2,5-diazabicyclo[2.2.1]heptan-2-yl]ethan-1-one]	9.3 nM	
Cc1ncc2c(-c3ccc(F)cc3C(=O)N(CC(F)F)C(C)C)cc(N3CCN(C(=O)[C@@H]4CCCN4)CC3)cn12 [Example 119]	41 nM	
CCN(C(=O)c1cc(F)ccc1-c1cc(N2CCN(C(=O)[C@@H]3CCCNC3)CC2)cn2c(C)ncc12)C(C)C [Example 124]	80.5 nM	
C[C@@H]1COCCN1C(=O)c1cc(F)ccc1-c1cc(C2CN(CC3CCN(C(=O)C4(O)CC4)CC3)C2)cc2c1cnn2C [Example 171, 1-(4-{[3-(4-{4-fluoro-2-[(3R)-3-methylmorpholin-4-carbonyl]phenyl}-1-methyl-1H-indazol-6-yl)azacyclobutan-1-yl]methyl}piperidin-1-carbonyl)cyclopropan-1-ol]	86 nM	
CCN(C(=O)c1cc(F)ccc1-c1cc(N2CCN(C(=O)[C@H]3N[C@@H]4CC[C@H]3C4)CC2)cn2c(C)ncc12)C(C)C [Example 88]		52 nM
Cc1nc(F)c2c(-c3ccc(F)cc3C(=O)N3CCOCC3C)cc(C3CN(C(C)C4CCN(C(=O)CC#N)CC4)C3)cn12 (stereo not shown) [Example 263-1]	74 nM	
CCN(C(=O)c1cc(F)ccc1-c1cc(C2CCN(C[C@H]3C[C@@H](NS(=O)(=O)CC)C3)C2)cn2c(C)ncc12)C(C)C (stereo partly shown) [Example 103]	70.5 nM	
CCS(=O)(=O)N[C@H]1CC[C@H](CN2CC(c3cc(-c4ccc(F)cc4C(=O)N4CCOC[C@@H]4C)c4cnc(C)n4c3)C2)CC1 [Example 135]	102 nM	
CCN(C(=O)c1cc(F)ccc1-c1cc(C2CN(C(=O)[C@@H]3CCCCN3)C2)cn2c(C)nc(Cl)c12)C(C)C [Example 126]		19 nM

Continued, in another order:

IC50 [1]	Compound	IC50 [2]
3 nM	CCN(C(=O)c1cc(F)ccc1-c1cc(CC2CN([C@@H](CCCN(C)CCOC)C(C)C)C2)n2c(C)cncc12)C(C)C [Example 296-2, N-ethyl-5-fluoro-2-[6-({1-[(3S)-6-[(2-methoxyethyl)(methyl)amino]-2-methylhexan-3-yl]azacyclobutan-3-yl}methyl)-4-methylpyrrolo[1,2-a]pyrazin-8-yl]-N-(isopropyl)benzamide]	
22 nM	CC(=O)N1CCC([C@@H](C(C)C)N2CC(c3cc(-c4ccc(F)cc4C(=O)N4CCOC[C@H]4C)c4c(F)nc(C)n4c3)C2)CC1 [Example 357-2, 1-{4-[(1R)-1-[3-(1-fluoro-8-{4-fluoro-2-[(3R)-3-methylmorpholin-4-carbonyl]phenyl}-3-methylimidazo[1,5-a]pyridin-6-yl)azacyclobutan-1-yl]-2-methylpropyl]piperidin-1-yl}ethan-1-one]	
1 nM	CCNC(=O)N1CCC([C@H](C)N2CC(c3cc(-c4ccc(F)cc4C(=O)N(CC)C(C)C)c4c(F)nc(C)n4c3)C2)CC1 [Example 282-2, N-ethyl-4-[(1S)-1-[3-(8-{2-[ethyl(isopropyl)aminoformyl]-4-fluorophenyl}-1-fluoro-3-methylimidazo[1,5-a]pyridin-6-yl)azacyclobutan-1-yl]ethyl]piperidin-1-formamide]	
22 nM	COC[C@@H]1CN(CCC[C@@H](C(C)C)N2CC(c3cc(-c4ccc(F)cc4C(=O)N(C(C)C)C(C)C)c4cnc(C)n4c3)C2)CCN1 [Example 505-1]	
31 nM	CCN(C(=O)c1cc(F)ccc1-c1cc(C2CN([C@@H](CCCN3CCN(C)CC3)C(C)C)C2)cn2c(C)ncc12)C(C)C [Example 310-1, N-ethyl-5-fluoro-2-(3-methyl-6-{1-[(3S)-2-methyl-6-(4-methylpiperazin-1-yl)hexan-3-yl]azacyclobutan-3-yl}imidazo[1,5-a]pyridin-8-yl)-N-(isopropyl)benzamide]	
110 nM	CCN(C(=O)c1cc(F)ccc1-c1cc(C2CN([C@@H](CCCN3CCC(OC)CC3)C(C)C)C2)cc2c1cnn2C)C(C)C [Example 399-1, N-ethyl-5-fluoro-2-(6-{1-[(3S)-6-(4-methoxypiperidin-1-yl)-2-methylhexan-3-yl]azacyclobutan-3-yl}-1-methyl-1H-indazol-4-yl)-N-(isopropyl)benzamide]	
14.5 nM	CCN(C(=O)c1cc(F)ccc1-c1cc(C2CN([C@@H](CCCN(C)CCOC)C(C)C)C2)cn2c(C)nc(F)c12)C(C)C [Example 307-1, N-ethyl-5-fluoro-2-(1-fluoro-6-{1-[(3S)-6-[(2-methoxyethyl)(methyl)amino]-2-methylhexan-3-yl]azacyclobutan-3-yl}-3-methylimidazo[1,5-a]pyridin-8-yl)-N-(isopropyl)benzamide]	
